Reference: US20100221763A1, “Specific Acceptors for Transferases to Saccharides and Method for Obtaining and Using Same” (Health Research, Inc, priority 2005, published 2010)

Experiments:
[1] = target: T1, Rat recombinant α2,3(O)ST (Rattus norvegicus, UniProt Q11205); experiment: Sialyltransferase assay with cloned α2,3(O)ST; format: biochemical; settings: for Km / Vmax: CMP-NeuAc 150 μM, Lineweaver-Burke plot
T1 construct: purchased Calbiochem
T1 sequence (Q11205 1-350): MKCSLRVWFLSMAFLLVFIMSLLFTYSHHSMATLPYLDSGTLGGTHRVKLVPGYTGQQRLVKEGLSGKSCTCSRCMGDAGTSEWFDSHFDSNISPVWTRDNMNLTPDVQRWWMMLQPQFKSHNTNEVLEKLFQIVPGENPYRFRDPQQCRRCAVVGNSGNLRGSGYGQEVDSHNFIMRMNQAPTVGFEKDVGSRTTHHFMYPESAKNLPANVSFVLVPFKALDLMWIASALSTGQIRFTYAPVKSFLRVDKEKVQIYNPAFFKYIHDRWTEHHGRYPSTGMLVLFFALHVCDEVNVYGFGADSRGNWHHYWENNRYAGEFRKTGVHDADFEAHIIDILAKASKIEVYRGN
Method: Rat recombinant α2,3(O)ST, α2,3(N)ST and α2,6(N)ST were purchased from Calbiochem and stored at either −20° C. or −70° C. as recommended by the supplier. […] 10 μl aliquots of the diluted enzymes were used in the assays run in duplicate.
(§1) The incubation mixtures run in duplicate contained 0.1M NaCacodylate buffer pH6.0, the acceptor (typically at 7.5 mM, or as indicated in some experiments), CMP-[9 ^3H] NeuAc (typically 0.2 μci; 20 μci/nmol or as indicated in some experiments) and the enzyme in a total volume of 20 μl. The control incubation mixtures contained everything except the acceptor. Incubation was carried out for 2 h at 37° C. The enzymatic transfer of [9-^3H] NeuAc to a typical acceptor was linear for 2 h and less than 30% CMP-[9-^3H] NeuAc was utilized. Chromatography, using either Dowex-1-Formate, Sep-Pak C18 or Biogel P2, was applied to separate radioactive product from un-reacted [9-^3H] NeuAc as described below.
(§2) The radioactive products from neutral allyl and methyl glycosides as well as non-glycosides were measured by fractionation on Dowex-1-Formate (Bio-Rad: AG-1X8; 200-400 mesh; format form) as follows: The incubation mixture was diluted with 1.0 ml water and passed through AG-1-formate column (1.0 ml bed volume in a Pasteur pipet which had been washed with 5 ml of 2M Formic acid followed by 10 ml water). The column was washed twice with 1.0 ml water after the entry of the sample and then eluted with 3.0 ml of 0.1M NaCl. The radioactivity present in water and 0.1M NaCl eluates were measured separately using 3a70 scintillation cocktail (Research Products International, Mount Prospect, Ill.) and a Beckman LS6500 scintillation counter. The CPM values were corrected by subtracting the blank CPM. Any radioactivity present in the water eluate (as noticed in the case of some methylglycosides) was added to the corresponding CPM value of 0.1M NaCl eluate. The radioactive products from sulfated and/or sialylated methylglycosides were also measured by the above procedure, only the elution of the AG-1-Formate column was continued further with 3.0 ml of 0.2M NaCl for achieving a complete elution of the radioactive product, a correction being made as before by subtracting the corresponding blank values.
(§3) The radioactive products from benzylglycosides and monosialylated benzylglycosides were measured by hydrophobic chromatography on Sep-Pak C18 cartridge (Waters, Milford, Mass.) and eluting the product with 3.0 ml methanol (30). The radioactivity was determined by liquid scintillation as above.
(§4) For such work, a Biogel P2 column (Fine Mesh; 1.0×116.0 cm) was used with 0.1M pyridine acetate pH5.4 as the eluent at room temperature. The effluent fractions were monitored for radioactivity and the first peak containing radioactivity was collected, lyophilized to dryness, dissolved in 200 μl of water and stored frozen at −20° C. for thin layer chromatography (TLC) and other experimentation.

LNCaP α2,3(O)ST = experiment: Sialyltransferase assay with LNCaP cell extract; format: biochemical, human
Method: The prostate carcinoma cell line, LNCaP, was grown in RPMI 1640 supplemented with 10% fetal bovine serum and antibiotics (penicillin, streptomycin and amphotericin B) under conditions recommended by American Type Culture Collection (Manassas, Va.). The cells were homogenized with 0.1M Tris-Maleate pH6.3 containing 2% Triton X-100 using a Dounce all glass hand-operated homogenizer. The homogenate was centrifuged at 16,000 g for 1 h at 4° C. Protein concentration in supernatant was measured using the BCA assay (Pierce Biotech, Inc., Rockford, Ill.), with BSA as the standard. The supernatant was adjusted to 5 mg protein/ml by adding the necessary amount of extraction buffer and then stored frozen at −20° C. until use. 10 μl aliquot of this extract was used in assays run in duplicate.
as §1, §2, §3, §4

[2] = Table II, acceptor 0.75 mM, relative to Galβ1,3GalNAcα-O-Bn
[3] = Table IV, compound 7.5 mM, relative to Galβ1,3(GlcNAcβ1,6)GalNAcα-O—Al
[4] = Table II, acceptor 7.5 mM, relative to Galβ1,3GalNAcα-O-Bn
[5] = Table I, acceptor 7.5 mM, 100% = 40560 CPM (3-O-MeGalβ1,4GlcNAcβ1,6(Galβ1,3)GalNAcα-O-Bn)
[6] = Table I, acceptor 7.5 mM, 100% = 30930 CPM (3-O-MeGalβ1,4GlcNAcβ1,6(Galβ1,3)GalNAcα-O-Bn)

SMILES	Sialyltransferase activity (%) Cloned α2,3(O)ST [1, 2]	Sialyltransferase activity (%) LNCaP α2,3(O)ST (LNCaP α2,3(O)ST; [2]) [%]	Km [1] [µM]	Vmax [1] [pmol/h]	also measured
COC[C@H]1O[C@H](OCc2ccccc2)[C@H](NC(C)=O)[C@@H](O[C@@H]2O[C@H](CO)[C@H](O)[C@H](OC)[C@H]2O)[C@H]1O [3-O-MeGalβ1,3(6-O-Me)GalNAcα-O-Bn]	55.9%	1.1			
CO[C@H]1[C@@H](O)[C@@H](CO)O[C@@H](O[C@H]2[C@@H](O)[C@@H](CO[C@@H]3O[C@H](CO)[C@@H](O)[C@H](O)[C@H]3NC(C)=O)O[C@H](OCc3ccccc3)[C@@H]2NC(C)=O)[C@@H]1O [3-O-MeGalβ1,3(GlcNAcβ1,6)GalNAcα-O-Bn, 3-O-MeGalβ1,3(GlcNAcβ1,6) GalNAcα-O-Bn]					Sialyltransferase activity (%) Cloned α2,3(O)ST [1, 3]: 24.7%
CO[C@H]1[C@@H](O)[C@@H](CO)O[C@@H](O[C@H]2[C@@H](O)[C@@H](CO)O[C@H](OCc3ccccc3)[C@@H]2NC(C)=O)[C@@H]1O [3-O-MeGalβ1,3GalNAcα-O-Bn]	70.4%	2.6			Sialyltransferase activity (%) Cloned α2,3(O)ST [1, 4]: 101.8%; Sialyltransferase activity (%) LNCaP α2,3(O)ST (LNCaP α2,3(O)ST; [4]): 15.5%
CO[C@H]1O[C@H](CO)[C@H](O)[C@H](O[C@@H]2O[C@H](CO)[C@H](O)[C@H](O[C@@H]3O[C@H](C)[C@H](O)[C@H](OS(=O)(=O)O)[C@H]3O)[C@H]2NC(C)=O)[C@H]1O [3-O-SulfoD-Fucβ1,3GalNAcβ1,3Galα-O-Me]			2000	624	
CC(=O)NC1C(OCC2OC(OCc3ccccc3)C(NC(C)=O)C(OC3OC(CO)C(O)C(OS(=O)(=O)O)C3O)C2O)OC(CO)C(O)C1O (stereo not shown) [3-O-SulfoGalβ1,3(GlcNAcβ1,6)GalNAcα-O-Bn, 3-O-SulfoGalβ1,3(GlcNAcβ1,6) GalNAcα-O-Bn]					Sialyltransferase activity (%) Cloned α2,3(O)ST [1, 3]: 54.7%
COC1OC(CO)C(O)C(OC2OC(CO)C(O)C(OC3OC(CO)C(O)C(OS(=O)(=O)O)C3O)C2NC(C)=O)C1O (stereo not shown) [3-O-SulfoGalβ1,3GalNAcβ1,3Galα-O-Me]			1250	416	
CC(=O)N[C@H]1[C@@H](OCc2ccccc2)O[C@H](CO)[C@H](O)[C@@H]1O[C@@H]1O[C@H](CO)[C@H](F)[C@H](O)[C@H]1O [4-F-Galβ1,3GalNAcα-O-Bn]	104.6^10%	44.8	250	1442	Sialyltransferase activity (%) Cloned α2,3(O)ST [1, 4]: 102.3^10%; Sialyltransferase activity (%) LNCaP α2,3(O)ST (LNCaP α2,3(O)ST; [4]): 105.1%
CO[C@@H]1[C@H](O)[C@@H](O)[C@H](O[C@H]2[C@@H](O)[C@@H](CO)O[C@H](OCc3ccccc3)[C@@H]2NC(C)=O)O[C@@H]1CO [4-O-MeGalβ1,3GalNAcα-O-Bn]	104.6^9%	141.5	130	1250	Sialyltransferase activity (%) Cloned α2,3(O)ST [1, 4]: 105.0^9%; Sialyltransferase activity (%) LNCaP α2,3(O)ST (LNCaP α2,3(O)ST; [4]): 188.7%
CC(=O)N[C@H]1[C@H](OC[C@H]2O[C@H](OCc3ccccc3)[C@H](NC(C)=O)[C@@H](O[C@@H]3O[C@H](CO)[C@H](O)[C@H](O)[C@H]3O[C@@H]3O[C@@H](C)[C@@H](O)[C@@H](O)[C@@H]3O)[C@H]2O)O[C@H](CO)[C@@H](O)[C@@H]1O [Fucα1,2Galβ1,3(GlcNAcβ1,6)GalNAcα-O-Bn]			1820	197	Sialyltransferase activity (%) Cloned α2,3(O)ST [1, 3]: 45.4%
CO[C@H]1O[C@H](CO[C@@H]2O[C@H](CO)[C@@H](O[C@@H]3O[C@H](CO)[C@H](O)[C@H](O)[C@H]3NC(C)=O)[C@H](O[C@@H]3O[C@@H](C)[C@@H](O)[C@@H](O)[C@@H]3O)[C@H]2NC(C)=O)[C@H](O)[C@H](O[C@@H]2O[C@H](CO)[C@H](O)[C@H](O)[C@H]2O)[C@H]1NC(C)=O [GalNAcβ1,4(Fucα1,3)GlcNAcβ1,6(Galβ1,3)GalNAcα-O-Me]					Sialyltransferase activity (%) Cloned α2,3(O)ST [1, 5]: 134.9%; Sialyltransferase activity (%) LNCaP α2,3(O)ST (LNCaP α2,3(O)ST; [6]): 21.1%
COC[C@H]1O[C@H](OCc2ccccc2)[C@H](NC(C)=O)[C@@H](O[C@@H]2O[C@H](CO)[C@H](O)[C@H](O)[C@H]2O)[C@H]1O [Galβ1,3(6-O-Me)GalNAcα-O-Bn]	107.6^11%	119.2			Sialyltransferase activity (%) Cloned α2,3(O)ST [1, 4]: 107.3^11%; Sialyltransferase activity (%) LNCaP α2,3(O)ST (LNCaP α2,3(O)ST; [4]): 189.4%
CC(=O)NC1C(OC2C(O)C(CO)OC(OC3C(CO)OC(OCc4ccccc4)C(NC(C)=O)C3O)C2O)OC(CO)C(OC2OC(CO)C(O)C(O)C2O)C1O (stereo not shown) [Galβ1,4GlcNAcβ1,3Galβ1,4GlcNAcβ-O-Bn]					Sialyltransferase activity (%) Cloned α2,3(O)ST [1, 5]: 8.7%
COC1OC(COC2OC(COS(=O)(=O)O)C(OC3OC(CO)C(O)C(OC4(C(=O)O)CC(O)C(NC(C)=O)C(C(O)C(O)CO)O4)C3O)C(OC3OC(C)C(O)C(O)C3O)C2NC(C)=O)C(O)C(OC2OC(CO)C(O)C(O)C2O)C1NC(C)=O (stereo not shown) [NeuAcα2,3Galβ1,4(6-O-Sulfo)(Fucα1,3)GlcNAcβ1,6(Galβ1,3)GalNAcα-O-Me]					Sialyltransferase activity (%) Cloned α2,3(O)ST [1, 5]: 7.4%
COC1OC(COC2OC(CO)C(OC3OC(CO)C(O)C(OC4(C(=O)O)CC(O)C(NC(C)=O)C(C(O)C(O)CO)O4)C3O)C(O)C2NC(C)=O)C(O)C(OC2OC(CO)C(O)C(O)C2O)C1NC(C)=O (stereo not shown) [NeuAcα2,3Galβ1,4GlcNAcβ1,6(Galβ1,3)GalNAcα-O-Me]					Sialyltransferase activity (%) Cloned α2,3(O)ST [1, 5]: 35.2%; Sialyltransferase activity (%) LNCaP α2,3(O)ST (LNCaP α2,3(O)ST; [6]): 5.1%
